Measurements taken from ChEMBL document CHEMBL2034881, “Inverse Virtual Screening allows the discovery of the biological activity of natural compounds” (Bioorg Med Chem, 2012).

How the values were obtained:
[1] = biological target: Protein kinase C theta type (Homo sapiens, UniProt Q04759); assay: Inhibition of human PKC theta assessed as inhibition of [33P] incorporation into substrate after 60 mins by scintillation counting
[2] = biological target: Protein kinase C alpha type (Homo sapiens, UniProt P17252); assay: Inhibition of human PKC alpha assessed as inhibition of [33P] incorporation into substrate after 60 mins by scintillation counting
[3] = biological target: T1, 3-phosphoinositide-dependent protein kinase 1 (Homo sapiens, UniProt O15530); assay: Inhibition of human PDK1 assessed as inhibition of [33P] incorporation into substrate after 60 mins by scintillation counting
T1 sequence (O15530 whole entry): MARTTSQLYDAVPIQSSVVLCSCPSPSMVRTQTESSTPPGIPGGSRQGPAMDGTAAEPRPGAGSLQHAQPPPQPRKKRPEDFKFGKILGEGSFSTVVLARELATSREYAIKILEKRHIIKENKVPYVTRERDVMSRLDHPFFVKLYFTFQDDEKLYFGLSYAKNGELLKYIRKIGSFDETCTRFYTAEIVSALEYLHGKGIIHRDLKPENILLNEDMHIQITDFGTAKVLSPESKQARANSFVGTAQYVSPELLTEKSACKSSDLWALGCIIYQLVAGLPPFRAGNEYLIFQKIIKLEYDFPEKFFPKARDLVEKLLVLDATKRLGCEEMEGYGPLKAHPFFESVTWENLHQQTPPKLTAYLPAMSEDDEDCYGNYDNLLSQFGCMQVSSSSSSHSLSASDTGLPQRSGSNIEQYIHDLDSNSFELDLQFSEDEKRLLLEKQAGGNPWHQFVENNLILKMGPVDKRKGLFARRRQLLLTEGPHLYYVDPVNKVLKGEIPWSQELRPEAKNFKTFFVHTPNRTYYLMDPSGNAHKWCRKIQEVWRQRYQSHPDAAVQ

Chain of Protein kinase C theta type (Q04759 whole entry): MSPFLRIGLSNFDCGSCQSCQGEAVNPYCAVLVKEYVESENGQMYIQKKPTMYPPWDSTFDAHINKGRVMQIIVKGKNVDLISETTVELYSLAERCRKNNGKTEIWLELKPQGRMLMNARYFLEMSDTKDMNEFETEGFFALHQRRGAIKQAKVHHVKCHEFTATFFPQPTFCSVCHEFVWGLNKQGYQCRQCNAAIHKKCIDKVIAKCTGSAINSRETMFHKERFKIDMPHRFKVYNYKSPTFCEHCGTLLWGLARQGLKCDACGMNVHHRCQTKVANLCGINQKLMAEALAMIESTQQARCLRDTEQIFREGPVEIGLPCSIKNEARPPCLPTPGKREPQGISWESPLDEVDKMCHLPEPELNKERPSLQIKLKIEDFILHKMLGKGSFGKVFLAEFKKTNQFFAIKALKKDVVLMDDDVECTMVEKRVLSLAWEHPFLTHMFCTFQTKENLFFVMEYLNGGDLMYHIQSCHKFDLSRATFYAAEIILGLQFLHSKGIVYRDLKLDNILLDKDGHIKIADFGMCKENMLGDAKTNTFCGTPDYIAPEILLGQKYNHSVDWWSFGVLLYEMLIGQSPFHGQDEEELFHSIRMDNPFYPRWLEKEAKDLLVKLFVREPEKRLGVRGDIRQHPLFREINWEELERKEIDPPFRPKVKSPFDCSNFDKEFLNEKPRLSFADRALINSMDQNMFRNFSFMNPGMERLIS

| IC50 [1] | IC50 [2] | IC50 [3] | SMILES |
| --- | --- | --- | --- |
| 31.6 µM | 45.3 µM | 58.7 µM | COc1cc(O)c(CC=C(C)C)c2c1C(=O)CC(c1ccc(O)cc1)O2 (stereo unspecified) [ISOXANTHOHUMOL] |
| > 100 µM | > 100 µM | 6.6 µM | COc1cc(O)c(CC=C(C)C)c(O)c1C(=O)/C=C/c1ccc(O)cc1 [XANTHOHUMOL] |
